Columns and labels:
Experiment in all cases: relative viability (nuclei count vs DMSO), 5 days (fraction); higher = more cells survive
[1] = compound: CN(NC(=O)CC(=O)NN(C)C(=S)c1ccccc1)C(=S)c1ccccc1 [Elesclomol]
Outline: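 For viability, nuclei in each treated well were divided by nuclei in vehicle wells and the median across plates was taken. Lung cancer cell lines in 1536-well plates were pinned with five library-drug doses (not always all listed) spaced by √10, cultured 5 days without medium change, and imaged at 4× after Hoechst staining, with plates passing only at control CV below 25% and at least one doubling.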

[2] = compound: CN(NC(=O)CC(=O)NN(C)C(=S)c1ccccc1)C(=S)c1ccccc1 [Elesclomol] + CC1(C)CCC(c2ccc(Cl)cc2)=C(CN2CCN(c3ccc(C(=O)NS(=O)(=O)c4ccc(N[C@H](CCN5CCOCC5)CSc5ccccc5)c(S(=O)(=O)C(F)(F)F)c4)cc3)CC2)C1 [Navitoclax] (partner 0.5 µM)
Outline: (§1)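 Values are medians from duplicate plates. Each reflects relative viability, defined as the nuclei count of treated wells over that of vehicle wells. Lung cancer cell lines in 1536-well plates were pin-tool dosed one day after seeding with one drug alone or with a fixed anchor-drug dose plus five library-drug doses (not always all listed) in √10 steps, then fixed, stained and imaged at 4× after 5 days.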

[3] = compound: CN(NC(=O)CC(=O)NN(C)C(=S)c1ccccc1)C(=S)c1ccccc1 [Elesclomol] + O=C(CCCCCCC(=O)Nc1ccccc1)NO [Vorinostat] (partner 1 µM)
Outline: as §1

[4] = compound: CN(NC(=O)CC(=O)NN(C)C(=S)c1ccccc1)C(=S)c1ccccc1 [Elesclomol] + COc1cc2c(Oc3ccc(NC(=O)C4(C(=O)Nc5ccc(F)cc5)CC4)cc3F)ccnc2cc1OCCCN1CCOCC1 [Foretinib] (partner 0.25 µM)
Outline: as §1

[5] = compound: CN(NC(=O)CC(=O)NN(C)C(=S)c1ccccc1)C(=S)c1ccccc1 [Elesclomol] + CS(=O)(=O)N1CCN(Cc2cc3nc(-c4cccc5[nH]ncc45)nc(N4CCOCC4)c3s2)CC1 [Pictilisib] (partner 1 µM)
Outline: as §1

[6] = compound: CN(NC(=O)CC(=O)NN(C)C(=S)c1ccccc1)C(=S)c1ccccc1 [Elesclomol] + C[C@@H](Oc1cc(-c2cnn(C3CCNCC3)c2)cnc1N)c1c(Cl)ccc(F)c1Cl [Crizotinib] (partner 1 µM)
Outline: as §1

[7] = compound: CN(NC(=O)CC(=O)NN(C)C(=S)c1ccccc1)C(=S)c1ccccc1 [Elesclomol] + Cc1nc(NC(=O)N2CCC[C@H]2C(N)=O)sc1-c1ccnc(C(C)(C)C(F)(F)F)c1 [Alpelisib] (partner 2 µM)
Outline: as §1

[8] = compound: CN(NC(=O)CC(=O)NN(C)C(=S)c1ccccc1)C(=S)c1ccccc1 [Elesclomol] + CC(C)C[C@H](NC(=O)[C@H](Cc1ccccc1)NC(=O)c1cnccn1)B(O)O [Bortezomib] (partner 0.002 µM)
Outline: as §1

[9] = compound: CN(NC(=O)CC(=O)NN(C)C(=S)c1ccccc1)C(=S)c1ccccc1 [Elesclomol] + C[C@]1(O)C[C@@H](c2nc(-c3ccc4ccc(-c5ccccc5)nc4c3)c3c(N)nccn32)C1 [Linsitinib] (partner 1 µM)
Outline: as §1

[10] = compound: CN(NC(=O)CC(=O)NN(C)C(=S)c1ccccc1)C(=S)c1ccccc1 [Elesclomol] + O=C(c1cc(Cc2n[nH]c(=O)c3ccccc23)ccc1F)N1CCN(C(=O)C2CC2)CC1 [Olaparib] (partner 8 µM)
Outline: as §1

[11] = compound: CN(NC(=O)CC(=O)NN(C)C(=S)c1ccccc1)C(=S)c1ccccc1 [Elesclomol] + CS(=O)(=O)CCNCc1ccc(-c2ccc3ncnc(Nc4ccc(OCc5cccc(F)c5)c(Cl)c4)c3c2)o1 [Lapatinib] (partner 2 µM)
Outline: as §1

IA-LM
relative viability ([1]; 0.003162 µM): 0.855 | relative viability ([1]; 0.01 µM): 0.374 | relative viability ([1]; 0.03162 µM): 0.0911 | relative viability ([1]; 0.1 µM): 0.0299 | relative viability ([2]; first compound 0.003162 µM): 0.415 | relative viability ([2]; first compound 0.01 µM): 0.133 | relative viability ([2]; first compound 0.03162 µM): 0.0436 | relative viability ([2]; first compound 0.1 µM): 0.0194 | relative viability ([3]; first compound 0.003162 µM): 0.863 | relative viability ([3]; first compound 0.01 µM): 0.858 | relative viability ([3]; first compound 0.03162 µM): 0.999 | relative viability ([3]; first compound 0.1 µM): 0.847 | relative viability ([4]; first compound 0.003162 µM): 1.13 | relative viability ([4]; first compound 0.01 µM): 0.54 | relative viability ([4]; first compound 0.03162 µM): 0.0372 | relative viability ([4]; first compound 0.1 µM): 0.009 | relative viability ([5]; first compound 0.003162 µM): 0.275 | relative viability ([5]; first compound 0.01 µM): 0.126 | relative viability ([5]; first compound 0.03162 µM): 0.052 | relative viability ([5]; first compound 0.1 µM): 0.0237 | relative viability ([6]; first compound 0.003162 µM): 0.746 | relative viability ([6]; first compound 0.01 µM): 0.343 | relative viability ([6]; first compound 0.03162 µM): 0.0493 | relative viability ([6]; first compound 0.1 µM): 0.0241 | relative viability ([7]; first compound 0.003162 µM): 0.789 | relative viability ([7]; first compound 0.01 µM): 0.164 | relative viability ([7]; first compound 0.03162 µM): 0.076 | relative viability ([7]; first compound 0.1 µM): 0.027 | relative viability ([8]; first compound 0.003162 µM): 0.534 | relative viability ([8]; first compound 0.01 µM): 0.137 | relative viability ([8]; first compound 0.03162 µM): 0.0664 | relative viability ([8]; first compound 0.1 µM): 0.0121 | relative viability ([9]; first compound 0.003162 µM): 0.47 | relative viability ([9]; first compound 0.01 µM): 0.265 | relative viability ([9]; first compound 0.03162 µM): 0.134 | relative viability ([9]; first compound 0.1 µM): 0.022 | relative viability ([10]; first compound 0.003162 µM): 0.892 | relative viability ([10]; first compound 0.01 µM): 0.526 | relative viability ([10]; first compound 0.03162 µM): 0.181 | relative viability ([10]; first compound 0.1 µM): 0.115 | relative viability ([11]; first compound 0.003162 µM): 0.658 | relative viability ([11]; first compound 0.01 µM): 0.201 | relative viability ([11]; first compound 0.03162 µM): 0.121 | relative viability ([11]; first compound 0.1 µM): 0.0621

NCI-H1299
relative viability ([1]; 0.003162 µM): 1.03 | relative viability ([1]; 0.01 µM): 0.733 | relative viability ([1]; 0.03162 µM): 0.709 | relative viability ([1]; 0.1 µM): 0.42 | relative viability ([2]; first compound 0.003162 µM): 1.05 | relative viability ([2]; first compound 0.01 µM): 0.97 | relative viability ([2]; first compound 0.03162 µM): 0.932 | relative viability ([2]; first compound 0.1 µM): 0.661 | relative viability ([4]; first compound 0.003162 µM): 1.04 | relative viability ([4]; first compound 0.01 µM): 1.06 | relative viability ([4]; first compound 0.03162 µM): 0.588 | relative viability ([4]; first compound 0.1 µM): 0.333 | relative viability ([5]; first compound 0.003162 µM): 0.743 | relative viability ([5]; first compound 0.01 µM): 0.171 | relative viability ([5]; first compound 0.03162 µM): 0.134 | relative viability ([5]; first compound 0.1 µM): 0.0529 | relative viability ([6]; first compound 0.003162 µM): 0.613 | relative viability ([6]; first compound 0.01 µM): 0.822 | relative viability ([6]; first compound 0.03162 µM): 0.698 | relative viability ([6]; first compound 0.1 µM): 0.507 | relative viability ([7]; first compound 0.003162 µM): 1.08 | relative viability ([7]; first compound 0.01 µM): 1.05 | relative viability ([7]; first compound 0.03162 µM): 0.918 | relative viability ([7]; first compound 0.1 µM): 0.636 | relative viability ([8]; first compound 0.003162 µM): 1.03 | relative viability ([8]; first compound 0.01 µM): 0.921 | relative viability ([8]; first compound 0.03162 µM): 0.834 | relative viability ([8]; first compound 0.1 µM): 0.622 | relative viability ([9]; first compound 0.003162 µM): 0.994 | relative viability ([9]; first compound 0.01 µM): 0.677 | relative viability ([9]; first compound 0.03162 µM): 0.549 | relative viability ([9]; first compound 0.1 µM): 0.145 | relative viability ([10]; first compound 0.003162 µM): 0.991 | relative viability ([10]; first compound 0.01 µM): 0.574 | relative viability ([10]; first compound 0.03162 µM): 0.401 | relative viability ([10]; first compound 0.1 µM): 0.146 | relative viability ([11]; first compound 0.003162 µM): 0.947 | relative viability ([11]; first compound 0.01 µM): 0.852 | relative viability ([11]; first compound 0.03162 µM): 0.698 | relative viability ([11]; first compound 0.1 µM): 0.547

Reference: the supplement of paper PMC10307832
